What was measured:
[1] = test system: L-selectin on neutrophils; type: cell-based, human
[2] = test system: Mac-1 (CD18/CD11b) on neutrophils; type: cell-based, human
[3] = test system: L-selectin on lymphocytes; type: cell-based, human
HIV = settings: chlorpromazine: at the concentration of Table I; cited from earlier work

O=[As]O[As]=O (stereo not drawn) [Arsenic (As203)]
approximate concentration for 100% LOSS of L-selectin from cell surface [1]: ~50 µM

O=S(=O)(O)c1cc(N=C=S)ccc1C=Cc1ccc(N=C=S)cc1S(=O)(=O)O [DIDS]
approximate concentration for 100% LOSS of L-selectin from cell surface [1]: ~200 uM-

CSCC[C@H](NC=O)C(=O)N[C@@H](CC(C)C)C(=O)N[C@@H](Cc1ccccc1)C(=O)O [fMLP, formyl-methionyl-leucyl-phenylalanine]
increase of cell surface Mac-1 expression compared to the ice control [2]: 3-10 fold | cell surface L-selectin released [1]: at least 90% | response of lymphocytes (L-selectin shedding) [3]: do not respond

O=S(=O)(F)Cc1ccccc1 [PMSF]
approximate concentration for 100% LOSS of L-selectin from cell surface [1]: ~1 mM-

[Cl][Cd][Cl] [Cadmium (CdC12)]
approximate concentration for 100% LOSS of L-selectin from cell surface [1]: ~1000 µM

CN(C)CCCN1c2ccccc2Sc2ccc(Cl)cc21 [Chlorpromazine]
approximate concentration for 100% LOSS of L-selectin from cell surface [1]: ~50 mM- | effective concentrations for induction of L-selectin shedding [1]: 10 to 50 µM

COc1cc(-c2ccc(-n3nc(-c4ccccc4)n[n+]3-c3ccc([N+](=O)[O-])cc3)c(OC)c2)ccc1-n1nc(-c2ccccc2)n[n+]1-c1ccc([N+](=O)[O-])cc1 [Nitroblue tetrazolium]
approximate concentration for 100% LOSS of L-selectin from cell surface [1]: ~100 uM-

O=C(O)CI [Iodoacetate IA, Iodoacetate]
approximate concentration for 100% LOSS of L-selectin from cell surface [1]: ~300 uM-

CN(C)C(=O)/N=N/C(=O)N(C)C [Diamide]
approximate concentration for 100% LOSS of L-selectin from cell surface [1]: ~1 mM-

Cc1c(C)n2c(CBr)c(C)c(=O)n2c1=O [Monobromobimane mBBr, Monobromobimane]
approximate concentration for 100% LOSS of L-selectin from cell surface [1]: ~100 uM-

NC(=O)CI [Iodoacetamide]
approximate concentration for 100% LOSS of L-selectin from cell surface [1]: ~10 mM-

CCCCCCCCCCCCCC(=O)O[C@@H]1[C@@H](C)[C@@]2(O)[C@@H](C=C(CO)C[C@]3(O)C(=O)C(C)=C[C@@H]23)[C@@H]2C(C)(C)[C@]12OC(C)=O [PMA]
time for lymphocytes to shed L-selectin [3]: ~30 min

CCN(CC)C(=S)SSC(=S)N(CC)CC [Disulfiram (Antabuse), Disulfiram]
approximate concentration for 100% LOSS of L-selectin from cell surface [1]: ~50 uM-

OO [Hydrogen peroxide]
approximate concentration for 100% LOSS of L-selectin from cell surface [1]: ~150 uM-

COc1ccc(C(c2ccc(OC)cc2)C(Cl)(Cl)Cl)cc1 [Methoxychlor]
approximate concentration for 100% LOSS of L-selectin from cell surface [1]: ~50 uM-

Thimerosal
approximate concentration for 100% LOSS of L-selectin from cell surface [1]: ~500 um-

Cc1c(CBr)n2c(CBr)c(C)c(=O)n2c1=O [Dibromobimane bBBr, Dibromobimane]
approximate concentration for 100% LOSS of L-selectin from cell surface [1]: ~100 um-

[O-2].[O-2].[O-2].[Sb+3].[Sb+3] [Antimony (Sb203)]
approximate concentration for 100% LOSS of L-selectin from cell surface [1]: ~50 µM

CCN1C(=O)C=CC1=O [N-ethylmaleimide]
approximate concentration for 100% LOSS of L-selectin from cell surface [1]: ~250 uM-

C1COCCO1 [Dioxane]
induction of L-selectin shedding (in words) [1]: itself induces L-selectin release

Protein Disulfide Isomerase
approximate concentration for 100% LOSS of L-selectin from cell surface [1]: ~20 ug/ml-

O=C(O)c1cc(SSc2ccc([N+](=O)[O-])c(C(=O)O)c2)ccc1[N+](=O)[O-] [DTNB, 5′,5′-dithio-bis(2-nitrobenzoic acid)]
approximate concentration for 100% LOSS of L-selectin from cell surface [1]: ~1 mM-

O=Ic1ccccc1C(=O)O [Iodosobenzoate]
approximate concentration for 100% LOSS of L-selectin from cell surface [1]: ~1 mM-

Clc1ccc(C(c2ccc(Cl)cc2)C(Cl)(Cl)Cl)cc1 [DDT]
approximate concentration for 100% LOSS of L-selectin from cell surface [1]: ~50 uM-

NC(=O)N=NC(N)=O [Azodicarbonamide]
approximate concentration for 100% LOSS of L-selectin from cell surface [1]: ~1 mM- | HIV infectivity (HIV): blocks HIV infectivity,

Thioredoxin
approximate concentration for 100% LOSS of L-selectin from cell surface [1]: ~50 ug/ml-

From patent US6943268B2 (priority 1999, dated 2005)
